Data published in patent publication US20220185793A1, “COMPOUNDS FOR THE TREATMENT OF ONCOVIRUS INDUCED CANCER AND METHODS OF USE THEREOF” (Cellestia Biotech AG, priority 2019, published 2022).

Experiments:
[1] = test system: EBV positive human lymphoma HG-3 cells; assay: Alamar blue proliferation assay in HG-3 cells; assay type: cell-based; details: 72 hours
Method: (§1) One million human EBV positive lymphoma cell lines HG3 and LCL070903 (Rosén et al., 2012) were cultured in RPMI1640 media supplemented with 10% FCS. […] Following treatment cells were harvested and washed with 1× PBS. Total RNA was extracted as described below.
(§2) Alamarblue® and PrestoBlue proliferation assays were performed to determine the growth kinetics of EBV inhibitor treated cells. Alamar blue® and PrestoBlue consists of a cell permeable substrate resazurin. In metabolically active and proliferating cells, resazurin is converted to resorufin due to an intrinsic reducing power of live cells and produces a red fluorescence. Therefore production of resorufin serves as an indicator of the viability of the cell population.
(§3) Proliferation assays were performed by seeding 5000 cells/well in a 96 well plate. […] Each concentration was tested in 4 replicates. To determine the growth kinetics, 10 μl of Alamar blue® or PrestoBlue (Invitrogen) was added to each well and incubated for 4 hours. Readout was taken using Tecan F500 (Tecan) multiplate reader or Varioskan LUX (ThermoFisher) multiplate reader.
In order to determine anti-cancer activity of compounds in oncoviral driven cells, an EBV infected human Chronic Lymphocytic Leukemia cell line HG-3 was used (Rosen et al., 2012). In brief, HG-3 cells were plated in a 96 well plate and treated with an increasing concentration of compounds.

BATF1 = assay: EBV target gene downregulation (qPCR) in HG-3 cells: BATF1; assay type: cell-based; details: Homo sapiens, mRNA by qPCR, Table 2
Method: (§4) One million human EBV positive lymphoma cell lines HG3 and LCL070903 (Rosén et al., 2012) were cultured in RPMI1640 media supplemented with 10% FCS. For RNA expression analysis cells were treated with compounds at 10 μM concentration and for proliferation assay cells were treated at a concentration range of 0.01-100 μM. Following treatment cells were harvested and washed with 1× PBS. Total RNA was extracted as described below.
(§5) Total RNA was extracted from cells using TRIzol® extraction kit (Invitrogen). Briefly, 1×10^6 cells were washed with ice-cold 1× PBS and lysed in 1 ml of TRIzol® solution for 5 minutes at room temperature to dissociate nucleoprotein complexes. Lysed cells were then treated with 200 μl of chloroform and shaked vigorously for 15-30 seconds and incubated at room temperature for 2-3 minutes. […]
(§6) In first protocol, SuperScript™ RT (Invitrogen) was used for reverse transcription reaction. RNA concentration was measured using NanoDrop®ND-1000 spectrophotometer (Witec AG) and 500 ng of total RNA was mixed with a 10 mM mix of dNTPs and 100 ng of random primers. […]
(§7) In second protocol, reverse transcription was performed using PrimeScript RT Master Mix (Takara). RNA concentration was measured using NanoDrop®ND-1000 spectrophotometer (Witec AG) and 1 μg of total RNA was mixed with 4 μL 5X PrimeScript RT Master Mix in a total reaction volume of 20 μL. […]

CD21 [2] = assay: EBV target gene downregulation (qPCR) in HG-3 cells: CD21; assay type: cell-based; details: Homo sapiens, mRNA by qPCR
Method: as §4, §5, §6, §7

NOTCH target gene HES1 = NOTCH target gene HES1 downregulation in RPMI 8402 cells; assay type: cell-based, human; parameters: Percentage inhibition of NOTCH target gene HES1: concentration or dose not given beside the values; details: RPMI 8402 cells (NOTCH1 positive, EBV negative)
Method: (§8) Total RNA was extracted from cells using TRIzol® extraction kit (Invitrogen). Briefly, 1×10^6 cells were washed with ice-cold 1× PBS and lysed in 1 ml of TRIzol® solution for 5 minutes at room temperature to dissociate nucleoprotein complexes. Lysed cells were then treated with 200 μl of chloroform and shaked vigorously for 15-30 seconds and incubated at room temperature for 2-3 minutes. The samples were centrifuged at 14000 rpm using Eppendorf table top centrifuge for 10 minutes at 4° C. Following centrifugation, upper aqueous phase was transferred to new eppendorf tubes. To precipitate total RNA 500 μl of […] was added to the separated aqueous phase and incubated at room temperature for 10 minutes. A RNA pellet was obtained by centrifuging the samples at 4° C. for 10 minutes. RNA pellet obtained was washed with 1 ml ice cold 75% ethanol and spun down at 14000 rpm at 4° C. RNA pellet was dried off of excess of ethanol and resuspended in 40 IA DPEC water.
(§9) Total RNA extracted from the cell was used to synthesize cDNA by reverse transcription reaction. Reverse transcription was performed according to one of the two following protocols.
(§10) QRT-PCR was carried out using 7900 HT Fast Real-Time PCR system (Applied Biosystems) or QuantStudio 3 system (ThermoFisher). Briefly, 12.5 ng of template cDNA was used with a primer concentration of 0.5 μM each and lx SYBR Green dye in a final volume of 10 μL in a 96 well or 384 well plate format.
(§11) To determine the ability of compounds to downregulate EBV driven gene expression, HG-3 cells were treated with selected compounds and percentage inhibition of EBV target genes was determined by quantitative PCR. […] To further determine the anti-oncoviral specificity of compounds, these compounds were tested for their ability to downregulate a NOTCH target gene HES1 in a NOTCH1 positive (EBV negative) human leukemic cell line RPMI8402.

LMP1 = assay: EBV target gene downregulation (qPCR) in LCL070903 cells: LMP1; assay type: cell-based; details: Homo sapiens, mRNA by qPCR, Table 6
Method: as §4, §5, §6, §7

BMI1 (EBV target gene) [3] = assay: EBV target gene downregulation (qPCR) in HG-3 cells: BMI1; assay type: cell-based, human; details: 48 hours; for potency in downregulating EBV pathway (BMI1) compared with 6-(4-tert-butylphenoxy)pyridin-3-amine (in words): 10 μM, qRT-PCR, FIG. 4; for inhibition at 10 µM: Homo sapiens, mRNA by qPCR, Table 5
Method: EBV positive human B HG-3 cells were treated with 10 μM of the mentioned compounds for 48 hours. Following treatment, total RNA was extracted and mRNA expression analysed by qRT-PCR.
as §4, §8, §9
(§12) In first protocol, SuperScript™ RT (Invitrogen) was used for reverse transcription reaction. RNA concentration was measured using NanoDrop®ND-1000 spectrophotometer (Witec AG) and 500 ng of total RNA was mixed with a 10 mM mix of dNTPs and 100 ng of random primers. The reaction mix was incubated at 65° C. for 5 minutes and quickly incubated on ice for 1 minute. Following incubation on ice, 5× first strand buffer and 0.1M DTT were added and mix was incubated for 2 minutes at 25° C. To start the reverse transcription reaction, 200U of SuperScrip™ II RT was added to the reaction mix and incubated at 42° C. for 50 minutes. The reaction was stopped by incubating the reaction mix at 75° C. for 15 minutes.
(§13) In second protocol, reverse transcription was performed using PrimeScript RT Master Mix (Takara). RNA concentration was measured using NanoDrop®ND-1000 spectrophotometer (Witec AG) and 1 μg of total RNA was mixed with 4 μL 5X PrimeScript RT Master Mix in a total reaction volume of 20 μL. The reaction mix was incubated at 37° C. for 15 minutes followed by heat inactivation at 85° C. for 5 seconds.
as §10
(§14) Upon infection of human cells, EBV is known to induce cancerous transformation of cells via upregulation of host as well as viral genes (e.g LMP1, EBNA2, BATF1, BMI1 and CD21). To determine the ability of compounds to downregulate EBV driven gene expression, HG-3 and LCL070903 cells were treated with selected compounds and percentage inhibition of EBV target genes was determined by quantitative PCR. As shown in Table 5 and Table 6, compounds down regulate EBV target genes such as BMI1 in HG-3 and LCL070903 cells, respectively (FIGS. 3 and 4).

EBNA2 [4] = assay: EBV target gene downregulation (qPCR) in LCL070903 cells: EBNA2; assay type: cell-based; details: Homo sapiens, mRNA by qPCR, Table 6
Method: as §4, §8, §9, §12, §13, §10, §14

CD21 [5] = assay: EBV target gene downregulation (qPCR) in LCL070903 cells: CD21; assay type: cell-based; details: Homo sapiens, mRNA by qPCR, Table 6
Method: as §4
as §8, with “A RNA pellet was obtained by centrifuging the samples at 4° C. for 10 minutes. RNA pellet obtained was washed with 1 ml ice cold 75% ethanol and spun down at 14000 rpm at 4° C. RNA pellet was dried off of excess of ethanol and resuspended in 40 IA DPEC water.” left out
as §6, §7
as §14, with “As shown in Table 5 and Table 6, compounds down regulate EBV target genes such as BMI1 in HG-3 and LCL070903 cells, respectively (FIGS. 3 and 4).” left out

[6] = test system: EBV positive human B HG-3 cells; assay: PrestoBlue proliferation assay in HG-3 cells; assay type: cell-based; details: 72 hours; for anti-proliferative effect on HG-3 cells (in words): PrestoBlue, FIG. 2 and Table 4; for IC50: Homo sapiens, concentration range 0.03-100 μM, PrestoBlue assay, read-out: Anti-proliferative IC50 values (μM) in HG-3 cells
Method: as §1, §2, §3
In brief, HG-3 cells were plated in a 96 well plate and treated with an increasing concentration of compounds.

BMI1 (EBV target gene) [7] = assay: EBV target gene downregulation (qPCR) in LCL070903 cells: BMI1; assay type: cell-based, human; details: 48 hours; for potency in downregulating EBV pathway (BMI1) compared with 6-(4-tert-butylphenoxy)pyridin-3-amine (in words): 10 μM, qRT-PCR, FIG. 3; for inhibition at 10 µM: Homo sapiens, mRNA by qPCR, Table 6
Method: EBV positive human B LCL070903 cells were treated with 10 μM of the mentioned compounds for 48 hours. Following treatment, total RNA was extracted and mRNA expression analysed by qRT-PCR.
as §4, §8, §9, §12, §13, §10, §14

EBNA2 [8] = assay: EBV target gene downregulation (qPCR) in HG-3 cells: EBNA2; assay type: cell-based; details: Homo sapiens, mRNA by qPCR, Table 5
Method: as §4, §8, §9, §12, §13, §10, §11, §14

Row | SMILES | anti-proliferative effect on HG-3 cells (in words) ([1]; Alamar blue, FIG. 1 and Table 1) | IC50 ([1]; Homo sapiens, concentration range 0.01-10 μM, Alamar blue assay, read-out: Anti-proliferative IC50 values) [nM] | inhibition at 10 µM (BATF1) [%] | inhibition at 10 µM (CD21 [2]; Table 2) [%] | Percentage inhibition of NOTCH target gene HES1 (NOTCH target gene HES1) [%] | downregulation of NOTCH target gene HES1 (in words) (NOTCH target gene HES1) | inhibition at 10 µM (LMP1) [%] | potency in downregulating EBV pathway (BMI1) compared with 6-(4-tert-butylphenoxy)pyridin-3-amine (in words) (BMI1 (EBV target gene) [3]) | inhibition at 10 µM (BMI1 (EBV target gene) [3]) [%] | inhibition at 10 µM (EBNA2 [4]) [%] | inhibition at 10 µM (CD21 [5]) [%] | anti-proliferative effect on HG-3 cells (in words) [6] | IC50 [6] [µM] | potency in downregulating EBV pathway (BMI1) compared with 6-(4-tert-butylphenoxy)pyridin-3-amine (in words) (BMI1 (EBV target gene) [7]) | inhibition at 10 µM (BMI1 (EBV target gene) [7]) [%] | inhibition at 10 µM (EBNA2 [8]) [%] | inhibition at 10 µM (CD21 [2]; Table 5) [%]
1 | CC(C)(C)c1ccc(Oc2ccc(NCc3cccnc3)cn2)cc1 [Example 2, 6-(4-(tert-Butyl)phenoxy)-N-(pyridin-3-ylmethyl)pyridin-3-amine] | demonstrate anti-proliferative effect | 2200 | > 90 | > 90 | 0 | do not modulate expression of this gene |  |  |  |  |  |  |  |  |  |  | 
2 | c1ccc(-c2ccc(Oc3ccc(NCc4cccnc4)cn3)cn2)cc1 [Example 21, 6-((6-Phenylpyridin-3-yl)oxy)-N-(pyridin-3-ylmethyl)pyridin-3-amine] |  |  |  |  |  |  | 12 | enhanced potency | 47 | 50 | 9 | demonstrate anti-proliferative effect | 3.8 | enhanced potency | 51 |  | 
3 | c1cncc(CNc2ccc(Oc3ccc(-c4cncs4)cc3)nc2)c1 [Example 27, N-(pyridin-3-ylmethyl)-6-(4-(thiazol-5-yl)phenoxy)pyridin-3-amine] |  |  |  |  |  |  |  | enhanced potency |  |  | 22 | demonstrate anti-proliferative effect | 1.9 | enhanced potency | 66 |  | 
4 | Cc1ccccc1-c1ccc(Oc2ccc(NCc3cccnc3)cc2)cc1C [Example 28, 4-((2,2′-Dimethyl-[1,1′-biphenyl]-4-yl)oxy)-N-(pyridin-3-ylmethy)aniline] |  |  |  |  |  |  | 24 | enhanced potency | 51 | 43 | 1 | demonstrate anti-proliferative effect | 1.5 | enhanced potency | 61 | 36 | 
5 | OC(c1ccc(NCc2cccnc2)cc1)c1ccc(-c2ccc(F)cc2)cc1 (stereo not drawn) [Example 30, (4′-Fluoro-[1,1′-biphenyl]-4-yl)(4-((pyridin-3-ylmethyl)amino)phenyl)methanol] |  |  |  |  |  |  |  | enhanced potency | 31 |  |  |  |  | enhanced potency | 54 |  | 10
